# Laboratory results: ChEMBL document CHEMBL1201862, “PubChem BioAssay data set” (2004)
#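 Compound exposure: 48 hours, 5 concentrations, 96-well plates. Abbreviation: GI50, concentration required for 50% inhibition of growth.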 Activity calls are given as the source filed them. No stated cut-off is given here; in the data, active = GI50 up to about 1.1 µM and inactive = higher.
# What was measured:
# Experiment in all cases: NCI-60 cell line screen, 48 h
# NCI-H460 = tested on: NCI-H460
# SF-539 = tested on: SF-539
# CAKI-1 = tested on: CAKI-1
# HOP-62 = tested on: HOP-62
# EKVX = tested on: EKVX
# HT-29 = tested on: HT-29
# A549 = tested on: A549
# MOLT-4 = tested on: MOLT-4
# HCT-15 = tested on: HCT-15
# ACHN = tested on: ACHN
# HL-60 = tested on: HL-60
# RPMI-8226 = tested on: RPMI-8226
# SK-MEL-28 = tested on: SK-MEL-28
# HCC 2998 = tested on: HCC 2998
# SN12C = tested on: SN12C
# HCT-116 = tested on: HCT-116
# UACC-257 = tested on: UACC-257
SMILES,GI50 (NCI-H460),GI50 (SF-539),GI50 (CAKI-1),GI50 (HOP-62),GI50 (EKVX),GI50 (HT-29),GI50 (A549),GI50 (MOLT-4),GI50 (HCT-15),GI50 (ACHN),GI50 (HL-60),GI50 (RPMI-8226),GI50 (SK-MEL-28),GI50 (HCC 2998),GI50 (SN12C),GI50 (HCT-116),GI50 (UACC-257)
CNC(=O)CN(CC(N)=O)C(N)=O,> 100 µM (inactive),> 100 µM (inactive),> 100 µM (inactive),> 100 µM (inactive),> 100 µM (inactive),> 100 µM (inactive),> 100 µM (inactive),> 100 µM (inactive),> 100 µM,> 100 µM (inactive),> 100 µM (inactive),> 100 µM (inactive),> 100 µM (inactive),> 100 µM (inactive),–,–,–
CCOC(=O)C12CN(C34CC5CC(CC(C5)C3)C4)CC(C(=O)OCC)(C1=O)C(c1ccccc1)OC2c1ccccc1 (stereo not given),> 100 µM (inactive),> 10 µM (inactive),–,> 100 µM (inactive),> 100 µM (inactive),61 µM (inactive),> 100 µM (inactive),35.6 µM (inactive),> 100 µM,> 100 µM (inactive),9.25 µM (inactive),16.5 µM (inactive),> 100 µM (inactive),> 100 µM (inactive),> 10 µM (inactive),> 10 µM (inactive),> 100 µM (inactive)
CCCCN(CCCC)C(=Nc1ccccc1)N(CCCC)CCCC,3.34 µM (inactive),11.4 µM (inactive),–,6.87 µM (inactive),4.35 µM (inactive),2.36 µM (inactive),7.62 µM (inactive),2.72 µM (inactive),–,3.55 µM (inactive),1.79 µM (inactive),1.8 µM (inactive),3.1 µM (inactive),4.32 µM (inactive),–,1.67 µM (inactive),7.41 µM (inactive)
Cc1c(-c2coc(-c3ccc([N+](=O)[O-])cc3)n2)c(=O)n(-c2ccccc2)n1C,> 100 µM (inactive),> 100 µM (inactive),–,> 100 µM (inactive),> 100 µM (inactive),> 100 µM (inactive),> 100 µM (inactive),> 100 µM (inactive),> 100 µM,> 100 µM (inactive),> 100 µM (inactive),> 100 µM (inactive),> 100 µM (inactive),> 100 µM (inactive),> 100 µM (inactive),> 100 µM (inactive),> 100 µM (inactive)
NS(=O)(=O)c1ccccc1C(=O)N/N=C(\c1nc2ccc([N+](=O)[O-])cc2[nH]c1=O)C(O)c1ccc([N+](=O)[O-])cc1 (stereo not given),> 100 µM (inactive),49.2 µM (inactive),> 100 µM (inactive),–,> 100 µM (inactive),> 100 µM (inactive),> 100 µM (inactive),> 100 µM (inactive),24.2 µM,41.6 µM (inactive),> 100 µM (inactive),58.5 µM (inactive),> 100 µM (inactive),> 100 µM (inactive),> 100 µM (inactive),84.1 µM (inactive),> 100 µM (inactive)
O=C(c1ccccc1)C1S(=O)(=O)OCCOS1(=O)=O,–,> 100 µM (inactive),> 100 µM (inactive),> 100 µM (inactive),> 100 µM (inactive),> 100 µM (inactive),> 100 µM (inactive),> 10 µM (inactive),–,–,> 100 µM (inactive),> 100 µM (inactive),> 100 µM (inactive),> 100 µM (inactive),> 100 µM (inactive),> 100 µM (inactive),> 100 µM (inactive)
Cc1ccc(NC(=O)OCC(COc2ccc(Cl)cc2Cl)OC(=O)Nc2ccc(C)cc2)cc1 (stereo not given),> 100 µM (inactive),89.5 µM (inactive),< 0.01 µM (active),> 100 µM (inactive),> 100 µM (inactive),> 100 µM (inactive),> 100 µM (inactive),–,> 100 µM,> 100 µM (inactive),–,> 100 µM (inactive),> 100 µM (inactive),> 100 µM (inactive),> 100 µM (inactive),> 100 µM (inactive),> 100 µM (inactive)
CC(=O)OCCOCBr,> 100 µM (inactive),> 100 µM (inactive),> 100 µM (inactive),> 100 µM (inactive),> 100 µM (inactive),> 100 µM (inactive),> 100 µM (inactive),–,> 100 µM,> 100 µM (inactive),> 100 µM (inactive),> 100 µM (inactive),> 100 µM (inactive),–,> 100 µM (inactive),> 100 µM (inactive),> 100 µM (inactive)
CCOC(=O)CC(=O)Sc1ccccc1,24.7 µM (inactive),14 µM (inactive),–,27.1 µM (inactive),19 µM (inactive),22.7 µM (inactive),14.6 µM (inactive),11 µM (inactive),–,23.1 µM (inactive),13.4 µM (inactive),17.7 µM (inactive),14.6 µM (inactive),23.9 µM (inactive),10.3 µM (inactive),12.6 µM (inactive),28.1 µM (inactive)
COc1ccccc1NC(=O)CC(=O)n1nc(C)c(/N=N/c2ccccc2C(=O)O)c1C,> 100 µM (inactive),> 100 µM (inactive),47.1 µM (inactive),85.9 µM (inactive),29.6 µM (inactive),> 100 µM (inactive),> 100 µM (inactive),> 100 µM (inactive),> 100 µM,–,> 100 µM (inactive),> 100 µM (inactive),> 100 µM (inactive),> 100 µM (inactive),> 100 µM (inactive),> 100 µM (inactive),> 100 µM (inactive)
O=C1C2c3[nH]c4ccccc4c3C3CCCCCCC3C2C(=O)N1c1ccccc1 (stereo not given),4.91 µM (inactive),12 µM (inactive),–,–,24.9 µM (inactive),19.9 µM (inactive),8.65 µM (inactive),> 10 µM (inactive),22.3 µM,8.24 µM (inactive),–,13.4 µM (inactive),14.6 µM (inactive),12.3 µM (inactive),6.03 µM (inactive),–,–
CC(=O)OCCC(O[Si](c1ccccc1)(c1ccccc1)C(C)(C)C)C(C)(C)O (stereo not given),32.1 µM (inactive),25.4 µM (inactive),–,–,48.4 µM (inactive),27.4 µM (inactive),34.5 µM (inactive),24 µM (inactive),31.1 µM,29.4 µM (inactive),–,23.9 µM (inactive),51.2 µM (inactive),–,18.3 µM (inactive),17.3 µM (inactive),26.5 µM (inactive)
O=C1C2C=CC(n3[nH]c(=O)n(Cc4ccccc4)c3=O)CC2C(=O)N1c1ccc(Br)cc1 (stereo not given),> 100 µM (inactive),> 100 µM (inactive),> 100 µM (inactive),> 100 µM (inactive),> 100 µM (inactive),> 100 µM (inactive),> 100 µM (inactive),> 100 µM (inactive),> 100 µM,> 100 µM (inactive),> 100 µM (inactive),> 100 µM (inactive),> 100 µM (inactive),> 100 µM (inactive),> 100 µM (inactive),> 100 µM (inactive),> 100 µM (inactive)
CCCCCOCC(O)CO (stereo not given),> 100 µM (inactive),> 100 µM (inactive),> 100 µM (inactive),> 100 µM (inactive),> 100 µM (inactive),–,> 100 µM (inactive),–,> 100 µM,> 100 µM (inactive),–,–,> 100 µM (inactive),–,> 100 µM (inactive),> 100 µM (inactive),> 100 µM (inactive)
O=C(CC1(O)C(=O)Nc2ccccc21)c1ccc(Cl)cc1Cl (stereo not given),–,> 100 µM (inactive),> 100 µM (inactive),–,> 100 µM (inactive),> 100 µM (inactive),> 100 µM (inactive),> 100 µM (inactive),> 100 µM,> 100 µM (inactive),> 100 µM (inactive),> 100 µM (inactive),> 100 µM (inactive),–,> 100 µM (inactive),> 100 µM (inactive),> 100 µM (inactive)
O=C1C2CCC(C2)C12CC1(c3ccccc3)C(=O)c3ccccc3N1O2 (stereo not given),–,> 100 µM (inactive),–,> 100 µM (inactive),> 100 µM (inactive),> 100 µM (inactive),> 100 µM (inactive),42.6 µM (inactive),> 100 µM,> 100 µM (inactive),42.1 µM (inactive),58.9 µM (inactive),> 100 µM (inactive),> 100 µM (inactive),> 100 µM (inactive),> 100 µM (inactive),> 100 µM (inactive)
C[C@@H](NC1CCCC[C@@H]1O)c1ccccc1 (stereo not given in full),> 100 µM (inactive),–,> 100 µM (inactive),> 100 µM (inactive),> 100 µM (inactive),> 100 µM (inactive),> 100 µM (inactive),> 100 µM (inactive),> 100 µM,> 100 µM (inactive),> 100 µM (inactive),> 100 µM (inactive),> 100 µM (inactive),> 100 µM (inactive),> 100 µM (inactive),> 100 µM (inactive),> 100 µM (inactive)
CC/C=C/c1cc2cc[nH]c2c2c1C(C)C[C@@H]2C (stereo not given in full),25.1 µM (inactive),21.8 µM (inactive),32.8 µM (inactive),–,43.2 µM (inactive),28.6 µM (inactive),35.9 µM (inactive),18.8 µM (inactive),22.5 µM,73.5 µM (inactive),26.7 µM (inactive),21.6 µM (inactive),22.8 µM (inactive),> 10 µM (inactive),18.9 µM (inactive),15.7 µM (inactive),32.8 µM (inactive)
CC(=O)OC(C[C@H](C)[C@@H]1CC[C@]2(C)C3=CCC4C(C)(C)C(=O)CC[C@]4(C)C3CCC12C)C1OC1(C)C (stereo not given in full),–,41.4 µM (inactive),–,20.4 µM (inactive),32.7 µM (inactive),15.7 µM (inactive),21.2 µM (inactive),24.5 µM (inactive),33 µM,11.5 µM (inactive),7.29 µM (inactive),16.7 µM (inactive),27.3 µM (inactive),16.4 µM (inactive),–,18.2 µM (inactive),20.3 µM (inactive)
